According to patent US8716436B2 (priority 2010, dated 2014):
In brackets after ≈: the same amount, converted by molar mass. Like-named read-outs stand apart in the source and are kept apart here. Where a SMILES comes first, the peptide text is derived from it.

Assays:
human mu opioid receptor = target: T1, human mu opioid receptor (Homo sapiens, UniProt P35372); assay: biochemical; type: binding
T1 construct: expressed in transfected cells; host or cells: CHO cells

[1] = target: human delta opioid receptor (Homo sapiens, UniProt P41143); assay: biochemical; type: binding
[2] = target: human kappa opioid receptor (Homo sapiens, UniProt P41145); assay: biochemical; type: binding
[3] = target: T2, cloned human mu opioid receptor (Homo sapiens, UniProt P35372); assay: biochemical; type: biochemical
T2 construct: expressed in transfected cells

[4] = target: T3, cloned human delta opioid receptor (Homo sapiens, UniProt P41143); assay: biochemical
T3 construct: expressed in transfected cells

[5] = target: cloned human kappa opioid receptor (Homo sapiens, UniProt P41145); assay: biochemical
[6] = target: T3, cloned human delta opioid receptor; assay: 35S-GTPγS functional assay, delta antagonism against ED80 dose of SNC80; type: biochemical; conditions: for Delta Antagonist efficacy: against ED80 dose of SNC80
[7] = Tail-flick (TF) antinociception after i.v. administration; type: in vivo; conditions: rat; for Antinociception (tail-flick): i.v., 5.6 mg/kg
[8] = Spared nerve injury (SNI) neuropathic pain, Randall-Selitto paw pressure; type: in vivo; conditions: rat SNI; for Reversal time of hyperalgesia (significantly above vehicle): intrathecal cumulative doses
[9] = Tolerance: intrathecal cumulative dose-response in tail-flick test before and after 1 week osmotic minipump; type: in vivo; conditions: rat; for ED50 antinociception on Day 7 after minipump implantation: morphine 2 μg/hr or analog 0.056 μg/hr for about 7 days; for ED50 antinociception in opioid naïve animals: before minipump
[10] = Rotorod test of motor coordination; conditions: rat, cumulative i.v. doses
[11] = Morris Water Maze (spatial memory); conditions: rat, after 4 days of training
[12] = Conditioned place preference (CPP); conditions: rat, i.v., doses producing maximal antinociception
glia = assay: Glial activation (GFAP and phospho-p38 staining) after 1 week of treatment; conditions: rat, after 1 week intrathecal treatment
[13] = rat
Solubility = type: physicochemical
Procedure: The solubility of the peptides of Formula I (e.g., in saline or physiologic buffer) typically is enhanced relative to the prior art tetrapeptide analogs of the endomorphins Addition of a hydrophilic amino acid and amidated C-terminus to the relatively hydrophobic tetrapeptide sequences Tyr-cyclo[D-Lys-Trp-Phe] (SEQ ID NO:10) and Tyr-cyclo[D-Lys-Phe-Phe] […] For example, Compound 1 was soluble in water, saline and 20% PEG/saline at about 43, 21 and 90 mg/mL, respectively, compared to less than about 2 mg/mL for the previously described compounds. While increases in solubility are associated with improved pharmaceutical delivery properties, higher solubility is also often associated with reduced functional activity (e.g., receptor binding) that may depend on lipophilicity.

Chain of human kappa opioid receptor (P41145 whole entry): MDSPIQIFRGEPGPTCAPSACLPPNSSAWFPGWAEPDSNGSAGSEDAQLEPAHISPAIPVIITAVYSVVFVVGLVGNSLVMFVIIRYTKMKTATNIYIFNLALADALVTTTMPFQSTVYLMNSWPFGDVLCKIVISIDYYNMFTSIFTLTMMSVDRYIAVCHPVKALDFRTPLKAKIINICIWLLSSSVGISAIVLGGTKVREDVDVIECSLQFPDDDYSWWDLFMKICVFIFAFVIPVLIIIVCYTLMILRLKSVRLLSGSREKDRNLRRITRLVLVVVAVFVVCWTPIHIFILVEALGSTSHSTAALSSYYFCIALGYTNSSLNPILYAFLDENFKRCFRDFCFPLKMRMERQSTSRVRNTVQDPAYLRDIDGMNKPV
Chain of cloned human kappa opioid receptor (P41145 whole entry): as above
T3 sequence (P41143 whole entry): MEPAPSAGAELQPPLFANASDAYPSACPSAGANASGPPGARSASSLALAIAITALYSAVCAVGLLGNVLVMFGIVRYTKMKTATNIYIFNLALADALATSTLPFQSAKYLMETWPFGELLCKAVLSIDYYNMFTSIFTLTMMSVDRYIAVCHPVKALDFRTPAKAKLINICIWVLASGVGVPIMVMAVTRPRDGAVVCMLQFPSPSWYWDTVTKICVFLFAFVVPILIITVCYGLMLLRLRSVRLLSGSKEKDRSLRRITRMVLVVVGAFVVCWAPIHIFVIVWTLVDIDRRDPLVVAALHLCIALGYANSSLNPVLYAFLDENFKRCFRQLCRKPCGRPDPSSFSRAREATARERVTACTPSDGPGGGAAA
Chain of human delta opioid receptor (P41143 whole entry): as above
T1 sequence (P35372 whole entry): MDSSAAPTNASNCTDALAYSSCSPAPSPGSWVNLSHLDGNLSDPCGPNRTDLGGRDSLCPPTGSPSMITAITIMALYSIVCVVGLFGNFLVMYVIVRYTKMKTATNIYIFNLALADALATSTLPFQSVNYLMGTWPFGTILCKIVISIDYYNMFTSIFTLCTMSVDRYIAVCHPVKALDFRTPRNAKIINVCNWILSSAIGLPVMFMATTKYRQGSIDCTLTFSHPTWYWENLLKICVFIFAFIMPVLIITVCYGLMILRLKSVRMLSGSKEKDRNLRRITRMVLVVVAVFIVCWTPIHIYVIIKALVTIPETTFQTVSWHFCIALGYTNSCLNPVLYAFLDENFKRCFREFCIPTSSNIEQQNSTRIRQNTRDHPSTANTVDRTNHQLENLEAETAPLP
T2 sequence (P35372 whole entry): as above

N[C@@H](Cc1ccc(O)cc1)C(=O)N[C@@H]1CCCCNC(=O)[C@H](Cc2ccccc2)NC(=O)[C@H](Cc2c[nH]c3ccccc23)NC1=O [ck1, Tyr-c[D-Lys-Trp-Phe], reference compound] (HELM PEPTIDE1{Y.[dK].W.F}$PEPTIDE1,PEPTIDE1,2:R3-4:R2$$$V2.0; bridges inferred)
Ki (human mu opioid receptor): 0.00032 µM
Ki [1]: 0.028 µM
Selectivity Delta/Mu (binding) [1]: 90
Ki [2]: 0.035 µM
Selectivity Kappa/Mu (binding) [2]: 111
EC50 [3]: 0.00021 µM
EC50 [4]: 0.138 µM
Selectivity delta/mu (activation) [4]: 658
EC50 [5]: 0.47 µM
Selectivity kappa/mu (activation) [5]: 2236

NC(=O)[C@@H]1CCCCNC(=O)CC[C@@H](NC(=O)[C@@H](N)Cc2ccc(O)cc2)C(=O)N[C@@H](Cc2ccccc2)C(=O)N[C@@H](Cc2ccccc2)C(=O)N1 [Compound 2, Tyr-c[D-Glu-Phe-Phe-Lys]-NH2]
Ki (human mu opioid receptor): 0.00073 µM
Ki [1]: 0.069 µM
EC50 [3]: 0.00099 µM
EC50 [4]: > 100 µM
IC50 [6]: 2.75 µM
Delta Antagonist efficacy [6]: 51
Antinociception (TF latency) relative to morphine ([7]; cumulative i.v. doses, at 135 and 155 minutes): significantly longer antinociception
Antinociception (tail-flick) [7]: antinociception similar to the 10 mg dose of morphine
Reversal time of hyperalgesia (significantly above vehicle) [8]: ~260 min
Shift in ED50 (tolerance) ([9]; after 1 week minipump): about 8.5 fold
ED50 antinociception on Day 7 after minipump implantation [9]: about 0.11±0.02 μg
Potency relative to morphine on a molar basis ([9]; tail-flick): about 40 fold
ED50 antinociception in opioid naïve animals ([9]; tail-flick): 0.01 µg
Motor impairment (rotorod) [10]: significantly less than that of morphine
Impairment of spatial memory (latency to and distance from platform) [11]: did not produce significant impairment
Conditioned place preference (time spent on the drug side) [12]: no significant CPP
Glial activation (integrated density of GFAP and pp38 staining) (glia): activation was not significantly different from vehicle

NC(=O)[C@@H]1CC(=O)NCCCC[C@@H](NC(=O)[C@@H](N)Cc2ccc(O)cc2)C(=O)N[C@@H](Cc2c[nH]c3ccccc23)C(=O)N[C@@H](Cc2ccccc2)C(=O)N1 [Compound 5, Tyr-c[D-Lys-Trp-Phe-Asp]-NH2]
Ki (human mu opioid receptor): 0.00043 µM
Ki [1]: 0.14 µM
EC50 [3]: 0.00022 µM
EC50 [4]: > 100 µM
IC50 [6]: 0.557 µM
Delta Antagonist efficacy [6]: 100
Conditioned place preference (time spent on the drug side) [12]: no significant CPP
Glial activation (integrated density of GFAP and pp38 staining) (glia): activation was not significantly different from vehicle

CN1CC[C@]23c4c5ccc(O)c4O[C@H]2[C@@H](O)C=C[C@H]3[C@H]1C5 [Morphine, morphine, reference compound]
Dose required to fully (100%) reverse hyperalgesia ([8]; intrathecal): about 1.14 μg
Reversal time of hyperalgesia (significantly above vehicle) [8]: about 80 min
ED50 antinociception on Day 7 after minipump implantation [9]: 16 ± 3.3 µg
ED50 antinociception in opioid naïve animals ([9]; tail-flick): 0.253 µg
Self-administration [13]: resulted in significant self-administration
Motor impairment (rotorod) [10]: significantly above that of vehicle controls
Impairment of spatial memory (latency to and distance from platform) [11]: produced impairment of spatial memory
Conditioned place preference (time spent on the drug side) [12]: increase in the time spent on the drug side
Glial activation (integrated density of GFAP and pp38 staining) (glia): produced significant glial activation

NC(=O)[C@@H]1CCC(=O)NCCCC[C@@H](NC(=O)[C@@H](N)Cc2ccc(O)cc2)C(=O)N[C@@H](Cc2c[nH]c3ccccc23)C(=O)N[C@@H](Cc2ccccc2)C(=O)N1 [Compound 1, Tyr-c[D-Lys-Trp-Phe-Glu]-NH2]
Ki (human mu opioid receptor): 0.00049 µM
Ki [1]: 0.132 µM
Agonist EC50 mu [3]: significantly greater potency than the reference compound, DAMGO
Agonist efficacy at the mu receptor [3]: full efficacy agonist
EC50 [3]: 0.00015 µM
EC50 [4]: > 100 µM
IC50 [6]: 0.105 µM
Delta Antagonist efficacy [6]: full efficacy delta antagonism
Delta Antagonist efficacy ([6]; listed as Comp. 1): 93
solubility (Solubility; 20% PEG/saline, read-out: Solubility in 20% PEG/saline): ~90 mg/mL (≈ 120 mM)
solubility (Solubility; saline, read-out: Solubility in saline): ~21 mg/mL (≈ 27.9 mM)
solubility (Solubility; water, read-out: Solubility in water): ~43 mg/mL (≈ 57.1 mM)
Antinociception (TF) relative to morphine ([7]; cumulative doses, about 140 to 180 minutes after injection): greater antinociception
Antinociception (tail-flick) [7]: antinociception similar to the 10 mg dose of morphine
Time at which scores were significantly above those of morphine ([8]; intrathecal): 155 to 215 min
Glial activation (integrated density of GFAP and pp38 staining) (glia): activation was not significantly different from vehicle

N[C@@H](Cc1ccc(O)cc1)C(=O)N[C@@H]1CCCCNC(=O)[C@H](Cc2ccccc2)NC(=O)[C@H](Cc2ccccc2)NC1=O [ck2, Tyr-c[D-Lys-Phe-Phe], reference compound] (HELM PEPTIDE1{Y.[dK].F.F}$PEPTIDE1,PEPTIDE1,2:R3-4:R2$$$V2.0; bridges inferred)
Ki (human mu opioid receptor): 0.00036 µM
Ki [1]: 0.003 µM
Selectivity Delta/Mu (binding) [1]: 9
Ki [2]: 0.012 µM
Selectivity Kappa/Mu (binding) [2]: 33
EC50 [3]: 0.00015 µM
EC50 [4]: 0.007 µM
Selectivity delta/mu (activation) [4]: 44
EC50 [5]: 0.206 µM
Selectivity kappa/mu (activation) [5]: 1374

Tyr-c[D-Lys-Trp-Phe-Glu]-Gly-NH2 [Compound 3]
Delta Antagonist efficacy [6]: full efficacy delta antagonism
